ChEMBL document CHEMBL2321746, “Cloning, characterization, and sulfonamide and thiol inhibition studies of an α-carbonic anhydrase from Trypanosoma cruzi, the causative agent of Chagas disease” (J Med Chem, 2013)

How the values were obtained:
Type in all cases: functional
[1] = system: Trypanosoma cruzi; assay: Antitrypanosomal activity against Trypanosoma cruzi Y epimastigotes at 256 uM incubated for 48 hrs by resazurin dye reduction based ELISA method
[2] = system: Trypanosoma cruzi; assay: Antitrypanosomal activity against Trypanosoma cruzi DM28 epimastigotes at 256 uM incubated for 48 hrs by resazurin dye reduction based ELISA method; details: DM28, 48 h
[3] = system: Trypanosoma cruzi; assay: Antitrypanosomal activity against Trypanosoma cruzi Y epimastigotes at 32 uM incubated for 48 hrs by resazurin dye reduction based ELISA method
[4] = system: Trypanosoma cruzi; assay: Antitrypanosomal activity against Trypanosoma cruzi Y epimastigotes at 128 uM incubated for 48 hrs by resazurin dye reduction based ELISA method
[5] = system: Trypanosoma cruzi; assay: Antitrypanosomal activity against Trypanosoma cruzi Y epimastigotes at 8 uM incubated for 48 hrs by resazurin dye reduction based ELISA method
[6] = system: Trypanosoma cruzi; assay: Antitrypanosomal activity against Trypanosoma cruzi Y epimastigotes at 16 uM incubated for 48 hrs by resazurin dye reduction based ELISA method
[7] = system: Trypanosoma cruzi; assay: Antitrypanosomal activity against Trypanosoma cruzi Y epimastigotes at 64 uM incubated for 48 hrs by resazurin dye reduction based ELISA method
[8] = system: Trypanosoma cruzi; assay: Antitrypanosomal activity against Trypanosoma cruzi DM28 epimastigotes at 128 uM incubated for 48 hrs by resazurin dye reduction based ELISA method; details: DM28, 48 h

Compound	inhibition at 256 µM [1] [%]	inhibition at 256 µM [2] [%]	inhibition at 32 µM [3] [%]	inhibition at 128 µM [4] [%]	inhibition at 8 µM [5] [%]	inhibition at 16 µM [6] [%]	inhibition at 64 µM [7] [%]	inhibition at 128 µM [8] [%]
C/C(CC(C)C)=N/NC(=O)Nc1nnc(S)s1	43	20	–	–	–	–	–	–
O=C(Cn1ccnc1[N+](=O)[O-])NCc1ccccc1 [BENZNIDAZOLE]	91	–	60	80	51	66	75	–
O=C(N/N=C\c1cccc(Br)c1)Nc1nnc(S)s1	58	34	–	–	–	–	–	–
O=C(N/N=C\c1ccccc1)Nc1nnc(S)s1	87	87	–	84	–	–	64	43
O=C(N/N=C1\C(=O)Nc2ccccc21)Nc1n[nH]c(=S)s1	30	9	–	–	–	–	–	–
O=C(N/N=C\c1ccc(Cl)cc1)Nc1nnc(S)s1	67	10	–	51	–	–	–	–
COc1cccc(/C=N\NC(=O)Nc2nnc(S)s2)c1	77	43	–	44	–	–	–	–
O=C(N/N=C1\C(=O)Nc2ccc(Br)cc21)Nc1n[nH]c(=S)s1	20	22	–	–	–	–	–	–
C/C(=N/NC(=O)Nc1nnc(S)s1)c1ccc(Cl)cc1	32	0	–	–	–	–	–	–
